# Measurements: patent US20250134122A1, “PEDIATRIC NUTRITIONAL COMPOSITIONS AND METHODS FOR INFANTS DELIVERED BY C-SECTION” (Mead Johnson Nutrition Company, priority 2018, published 2025)
# System: mouse fecal microbiota
# Assay: Gut microbiota community structure (16S rRNA V4-V5 sequencing, β-diversity, PCoA) after 3 weeks on experimental diets
# Type: in vivo
# Conditions: adult male C57bl/6 mice, 3 weeks of feeding; versus Control-fed or SAL-fed mice; ADONIS p<0.05
# From the text: Adult male C57bl/6 strains of Mus musculus (Charles Rivers Laboratories, Wilmington, MA) between 6-8 weeks of age were used in the study. After being received from the vendor, mice were placed on one of three experimental diets. Animals were given ad libitum access to water, and maintained on the experimental diets for 3 weeks. Experimental diets were: (1) Control diet (AlN-93G mouse chow); (2) AlN-93G supplemented with galactooligosaccharides (GOS 21.2 g/kg)+polydextrose (PDX 6.6 g/kg)+sialyllactose (SAL 2 g/kg); (3) AlN-93G supplemented with SAL.
# Colon contents were removed via direct excision for metabolomic analysis, and the colon tissue was briefly washed in a PBS bath so as to not disturb the mucous layer. DNA was extracted from the medial section of the colon (˜10 mg) using a Qiagen DNA Mini Kit, following manufacturer's instructions with slight modifications. Briefly, tissues were incubated for 45 min at 37° C. in lysozyme buffer (20 mg/ml lysozyme, 20 mM TrisHCL, 2 mM EDTA, 1.2% Triton-x, pH 8.0), then bead-beat for 150 sec with 0.7 mm zirconia beads. Samples were incubated at 56° C. for 2 hr with Buffer ATL and Proteinase K, then incubated at 56° C. for 30 min and 95° C. for 10 min upon addition of Buffer AL. […] DNA was quantified with the Qubit 2.0 Fluorometer (Life Technologies, Carlsbad, CA) using the dsDNA Broad Range Assay Kit. […]
substance,measurement,value
sialyllactose [SAL],"mouse fecal microbiota community structure (β-diversity; Unweighted UniFrac), PCoA clustering",not achieved
